Marks after values point to notes of the source that are not given here.
Key:
[1] = system: doxorubicin-induced cardiotoxicity in mice; assay: Chronic mouse model of doxorubicin-induced cardiotoxicity; assay type: in vivo; conditions: DOX-treated mice; sildenafil citrate 0.7 mg/kg ip
Protocol: Mice are treated with doxorubicin in the presence or absence of clinically relevant doses of sildenafil citrate, and the left ventricular systolic function is correlateed using 2-dimensional (2D) contrast echocardiography. The actions of dosing sildenafil citrate 24 hours prior to each dose of doxorubicin (Total of 3 doses) versus dosing sildenafil citrate daily for 28 days is tested. Histological examination is performed to assess the ultrastructural alterations including nuclear condensation with coarse chromatin clumping, sarcoplasmic reticulum vacuolization, and mitochondrial fine structure disruption which are known to occur widely in doxorubicin-treated cardiomyocytes. […] The role of sildenafil in attenuation of DOX-induced apoptosis and attenuation of mitochondrial transition pore opening is assessed. The contribution of […] channel opening in rescuing DOX-induced cell death in sildenafil treated mice is determined by using 5-hydroxydecanoate, a selective blocker of the […] channel.
Materials and methods. […] Weight of all animals is measured weekly and gross heart weight is measured prior to freezing in liquid nitrogen. […] Specifically, nuclear chromatinmargination, mitochondrial swelling, cristae disappearance/matrix clearing, presence or absence of contractile apparatus disarray, and sarcoplasmic reticulum vacuolization is measured.

[2] = system: cardiac myocytes from adult mice; assay: Simulated ischemia/reoxygenation in isolated cardiac myocytes (trypan blue, TUNEL); assay type: cell-based; conditions: 10 μM, 40 min simulated ischemia
Protocol: The ability of sildenafil to confer protection against necrosis and apoptosis in cardiac myocytes was tested. Freshly isolated myocytes from adult mice were exposed to simulated ischemia with or without sildenafil (10 μM) for 40 minutes followed by reoxygenation for 60 minutes. The ischemic buffer contained (in mM): 118 NaCl, 24 NaHCO3, 1.0 NaH2PO4, 2.5 CaCl2-2H2O, 1.2 MgCl2, 20 sodium lactate, 16 KCl, 10 2-deoxyglucose (pH adjusted to 6.2). At the end of this protocol, necrotic cell death was evaluated by uptake of trypan blue using a phase contrast microscope. To determine apoptosis, the myocytes were reoxygenated for an extended period of 18 hrs after incubating them in the ischemic buffer for 40 minutes. Apoptosis was determined using the terminal deoxynucleotide nick-end labeling (TUNEL) assay which detects cells undergoing programmed cell death due to DNA fragmentation.

[3] = system: nNOS, iNOS and eNOS knockout mouse hearts; assay: Delayed cardioprotection in NOS gene-knockout mice, isolated perfused heart, 30 min global ischemia and 60 min reperfusion; assay type: in vivo; conditions: iNOS-KO mice
[4] = Systemic hemodynamics (blood pressure, heart rate, rate pressure product) in rabbits; assay type: in vivo, rabbit
[5] = oral 1.4 mg/kg, after 30 minutes
[6] = oral sildenafil citrate 1.4 mg/kg, Acute, 30-min Ischemia
[7] = oral sildenafil citrate 1.4 mg/kg, Acute, 60-min Reperfusion
[8] = oral sildenafil citrate 1.4 mg/kg, Acute, 80-min Reperfusion
[9] = oral sildenafil citrate 1.4 mg/kg, Acute, 120-min Reperfusion
[10] = oral sildenafil citrate 1.4 mg/kg, Acute, Baseline
[11] = oral sildenafil citrate 1.4 mg/kg, Acute, Preischemia
[12] = oral sildenafil citrate 1.4 mg/kg, Delayed, 30-min Ischemia
[13] = oral sildenafil citrate 1.4 mg/kg, Delayed, 60-min Reperfusion
[14] = oral sildenafil citrate 1.4 mg/kg, Delayed, 80-min Reperfusion
[15] = oral sildenafil citrate 1.4 mg/kg, Delayed, 120-min Reperfusion
[16] = oral sildenafil citrate 1.4 mg/kg, Delayed, Baseline
[17] = oral sildenafil citrate 1.4 mg/kg, Delayed, Preischemia
[18] = sildenafil 0.7 mg/kg IV, acute phase, 30-min Ischemia
[19] = sildenafil 0.7 mg/kg IV, acute phase, Baseline
[20] = sildenafil 0.7 mg/kg IV, acute phase, Preischemia
[21] = sildenafil 0.7 mg/kg IV, acute phase, Reperfusion (60 min)
[22] = sildenafil 0.7 mg/kg IV, acute phase, Reperfusion (120 min)
[23] = sildenafil 0.7 mg/kg IV, acute phase, Reperfusion (180 min)
[24] = sildenafil 0.7 mg/kg IV, delayed phase, 30-min Ischemia
[25] = sildenafil 0.7 mg/kg IV, delayed phase, Baseline
[26] = sildenafil 0.7 mg/kg IV, delayed phase, Preischemia
[27] = sildenafil 0.7 mg/kg IV, delayed phase, Reperfusion (60 min)
[28] = sildenafil 0.7 mg/kg IV, delayed phase, Reperfusion (120 min)
[29] = sildenafil 0.7 mg/kg IV, delayed phase, Reperfusion (180 min)
[30] = sildenafil citrate 0.7 mg/kg intravenous, within 2 minutes

For `CCCc1nn(C)c2c(=O)[nH]c(-c3cc(S(=O)(=O)N4CCN(C)CC4)ccc3OCC)nc12` [sildenafil], which LV function [1] is on record?
The LV function was “improves LV function”.

And the “ultrastructural damage to the heart” value [1]?
Its value is “reduces ultrastructural damage to the heart”.

And the “necrotic cell death by trypan blue uptake” value ([2]; 60 min reoxygenation)?
Its value is “significantly more blue (i.e. viable) cells”.

What about the “apoptosis by TUNEL staining” value ([2]; 18 hrs reoxygenation) of the same molecule?
Its value is “rescues myocytes against apoptotic cell death”.

And the delayed cardioprotection [3]?
The delayed cardioprotection was “absent”.

What about the “changes in heart rate” value ([4]; 0.7 mg/kg intravenous) of the same molecule?
Its value is “No significant changes in heart rate”.

What about the “time until systemic hemodynamics returned to nearly baseline levels” value ([4]; 0.7 mg/kg intravenous) of the same molecule?
Its value is ≤ 5 min.

And the “changes in heart rate” value ([4]; oral 1.4 mg/kg)?
The value was “No changes in heart rate”.

And the “decrease in diastolic pressure” value [4, 5]?
Its value is ~12.5%.

What about the “decrease in mean arterial pressure” value [4, 5] of the same molecule?
The value was ~10.3%.

And the “decrease in systolic pressure” value [4, 5]?
Its value is “approximately 9.2%”.

What about the hypotensive response ([4]; oral 1.4 mg/kg, at 60 minutes) of the same molecule?
The hypotensive response was “remained significant”.

And the HR [4, 6]?
The HR was 216 ± 18 beats/min.

What about the MAP [4, 6] of the same molecule?
The MAP was 96 ± 6 mmHg.

What about the “RPP (systolic arterial pressure x HR)” value [4, 6] of the same molecule?
The value was 23137 ± 1617.

What about the HR [4, 7] of the same molecule?
Its HR is 205 ± 14 beats/min.

What about the MAP [4, 7] of the same molecule?
The MAP was 89 ± 0.4 mmHg.

What about the “RPP (systolic arterial pressure x HR)” value [4, 7] of the same molecule?
The value was 21647 ± 2274.

What about the HR [4, 8] of the same molecule?
Its HR is 187 ± 9 beats/min.

What about the MAP [4, 8] of the same molecule?
Its MAP is 81 ± 5c mmHg.

And the “RPP (systolic arterial pressure x HR)” value [4, 8]?
The value was 18555 ± 1336.

And the HR [4, 9]?
Its HR is 187 ± 9 beats/min.

And the MAP [4, 9]?
Its MAP is 82 ± 5c mmHg.

And the “RPP (systolic arterial pressure x HR)” value [4, 9]?
The value was 17738 ± 860c.

And the HR [4, 10]?
The HR was 216 ± 5 beats/min.

And the MAP [4, 10]?
Its MAP is 100 ± 2a mmHg.

And the “RPP (systolic arterial pressure x HR)” value [4, 10]?
Its value is 24859 ± 239.

And the HR [4, 11]?
Its HR is 210 ± 20 beats/min.

And the MAP [4, 11]?
The MAP was 95 ± 3 mmHg.

And the “RPP (systolic arterial pressure x HR)” value [4, 11]?
Its value is 22848 ± 2027.

What about the HR [4, 12] of the same molecule?
The HR was 190 ± 18 beats/min.

What about the MAP [4, 12] of the same molecule?
Its MAP is 104 ± 5 mmHg.

And the “RPP (systolic arterial pressure x HR)” value [4, 12]?
The value was 22089 ± 2288.

And the HR [4, 13]?
The HR was 185 ± 14 beats/min.

What about the MAP [4, 13] of the same molecule?
Its MAP is 103 ± 8 mmHg.

And the “RPP (systolic arterial pressure x HR)” value [4, 13]?
The value was 20955 ± 1469.

And the HR [4, 14]?
The HR was 173 ± 16 beats/min.

What about the MAP [4, 14] of the same molecule?
The MAP was 94 ± 8 mmHg.

What about the “RPP (systolic arterial pressure x HR)” value [4, 14] of the same molecule?
The value was 18838 ± 1913.

And the HR [4, 15]?
The HR was 171 ± 15 beats/min.

And the MAP [4, 15]?
The MAP was 94 ± 8 mmHg.

What about the “RPP (systolic arterial pressure x HR)” value [4, 15] of the same molecule?
The value was 17692 ± 978.

And the HR [4, 16]?
Its HR is 187 ± 15 beats/min.

And the MAP [4, 16]?
Its MAP is 109 ± 3 mmHg.

And the “RPP (systolic arterial pressure x HR)” value [4, 16]?
Its value is 22626 ± 2173.

What about the HR [4, 17] of the same molecule?
The HR was 193 ± 7 beats/min.

What about the MAP [4, 17] of the same molecule?
The MAP was 99 ± 3 mmHg.

What about the “RPP (systolic arterial pressure x HR)” value [4, 17] of the same molecule?
Its value is 21938 ± 989.

And the HR [4, 18]?
The HR was 208 ± 11 beats/min.

And the MAP [4, 18]?
The MAP was 76 ± 7 mmHg.

And the “RPP (systolic arterial pressure × HR)” value [4, 18]?
The value was 17,728 ± 1441.

And the HR [4, 19]?
The HR was 247 ± 20 beats/min.

And the MAP [4, 19]?
The MAP was 77 ± 4^f mmHg.

What about the “RPP (systolic arterial pressure × HR)” value [4, 19] of the same molecule?
The value was 21,988 ± 2129.

What about the HR [4, 20] of the same molecule?
Its HR is 204 ± 8 beats/min.

And the MAP [4, 20]?
Its MAP is 81 ± 6^f mmHg.

What about the “RPP (systolic arterial pressure × HR)” value [4, 20] of the same molecule?
Its value is 18,132 ± 999.

What about the HR [4, 21] of the same molecule?
Its HR is 201 ± 14 beats/min.

What about the MAP [4, 21] of the same molecule?
The MAP was 76 ± 5^f mmHg.

And the “RPP (systolic arterial pressure × HR)” value [4, 21]?
The value was 16748 ± 1425.

What about the HR [4, 22] of the same molecule?
The HR was 177 ± 11^a beats/min.

And the MAP [4, 22]?
The MAP was 74 ± 5^f mmHg.

And the “RPP (systolic arterial pressure × HR)” value [4, 22]?
Its value is 14909 ± 1289^a.

And the HR [4, 23]?
Its HR is 158 ± 12^a beats/min.

What about the MAP [4, 23] of the same molecule?
Its MAP is 73 ± 5^f mmHg.

And the “RPP (systolic arterial pressure × HR)” value [4, 23]?
The value was 12,967 ± 1115^a.

And the HR [4, 24]?
The HR was 189 ± 8^a beats/min.

And the MAP [4, 24]?
The MAP was 73 ± 9 mmHg.

What about the “RPP (systolic arterial pressure × HR)” value [4, 24] of the same molecule?
The value was 15,395 ± 1784.

What about the HR [4, 25] of the same molecule?
Its HR is 229 ± 14 beats/min.

And the MAP [4, 25]?
Its MAP is 76 ± 5^f mmHg.

What about the “RPP (systolic arterial pressure × HR)” value [4, 25] of the same molecule?
Its value is 19,692 ± 1528.

What about the HR [4, 26] of the same molecule?
Its HR is 215 ± 8 beats/min.

And the MAP [4, 26]?
Its MAP is 71 ± 5^f mmHg.

And the “RPP (systolic arterial pressure × HR)” value [4, 26]?
The value was 17,764 ± 1174.

And the HR [4, 27]?
Its HR is 179 ± 8^a,b beats/min.

And the MAP [4, 27]?
The MAP was 74 ± 9^f mmHg.

And the “RPP (systolic arterial pressure × HR)” value [4, 27]?
The value was 15,086 ± 1989.

And the HR [4, 28]?
The HR was 170 ± 8^a,b beats/min.

What about the MAP [4, 28] of the same molecule?
Its MAP is 73 ± 5^f mmHg.

What about the “RPP (systolic arterial pressure × HR)” value [4, 28] of the same molecule?
Its value is 13,477 ± 1285^a.

What about the HR [4, 29] of the same molecule?
The HR was 164 ± 11^a,b beats/min.

What about the MAP [4, 29] of the same molecule?
Its MAP is 68 ± 3^f mmHg.

And the “RPP (systolic arterial pressure × HR)” value [4, 29]?
The value was 12,196 ± 1088^a.

What about the “decline in diastolic pressure” value [4, 30] of the same molecule?
The value was 47.3%.

And the “decline in mean arterial pressure” value [4, 30]?
Its value is 38.8%.

What about the “decline in systolic pressure” value [4, 30] of the same molecule?
The value was 24.5%.
